US8669257B2, “Phenazine derivatives and uses thereof as potassium channel modulators” (The Johns Hopkins University, priority 2007, dated 2014)

Tested on: calcium influx in Jurkat T-cells
Test: Calcium imaging assay: store-depletion induced calcium influx in Jurkat T-cells
Format: cell-based, human
Conditions: thapsigargin then 2 mM Ca2+; clofazimine preincubated 5 min
Description: JurkaT-cells were attached to L-lysine-coated glass dishes (MatTek). Cells were loaded with fura-2-AM (Invitrogen_F-1201) for 45 min before they were washed sequentially with growth medium and Ca^2+-free HBSS. Fluorescence excitation wavelengths were set at 350 and 380 nm, respectively, on a Zeiss Axiovert 200M microscope while emission wavelength was set at 510 nm. Changes in intracellular calcium concentrations were determined by fluorescence intensity ratio ([…]/F380).

Row | SMILES | effect on calcium entry
1 | Clc1ccc(COC(Cn2ccnc2)c2ccc(Cl)cc2Cl)cc1 (centres unmarked) [econazole] | abrogated calcium entry
2 | [Gd] [gadolinium] | abrogated calcium entry
